Test results reported in patent publication US20130156857A1, “Pharmaceutical Compositions Containing Diacerein” (TWI BIOTECHNOLOGY, INC., priority 2008, published 2013).
In brackets after ≈: the same amount, converted by molar mass. Like-named read-outs stand apart in the source and are kept apart here. One block for each compound: values may come before it.

Key:
[1] = Solubility and stability pH profile of diacerein at ambient temperature for 48 hours; format: physicochemical; conditions: for Proportion of Diacerein and its degradants: Diacerein / solubility at 48 h: 48 hours; for solubility at 48 h: thermodynamic from solid, read-out: Total solubility
Description: (§1) The tables below indicate the solubility and stability of diacerein in buffer solutions with different pH values. […] The degradation products including rhein increase at a pH above 5. The poor stability of diacerein in the intestinal environment may result in incomplete absorption and cause poor and variable bioavailability. Moreover, one of the increased degradants in the intestinal environment, rhein, has been suspected to be a major factor in stimulating colon mucosa and results in diarrhea. Accordingly, methods to stabilize diacerein during gastro-intestinal absorption might improve its bioavailability as well as the side effect of diarrhea. The stabilization methods for use with diacerein may include the addition of acidifying or buffering agents or complexation with cyclodextrins.

[2] = Solubility and stability of diacerein at ambient temperature for one hour; format: physicochemical
Description: as §1

[3] = cited from earlier work
[4] = in vivo; cited from earlier work
[5] = cited from earlier work; remark: listed apart in the source
[6] = cited from earlier work; remark: listed apart in the source

Proportion of Diacerein and its degradants: Diacerein ([1]; 0.01N HCl, final pH 1.98, ambient temperature): 100%
Proportion of Diacerein and its degradants: Diacerein ([1]; 50 mM NaH2PO4, final pH 3.03, ambient temperature): 100%
Proportion of Diacerein and its degradants: Diacerein ([1]; 50 mM NaH2PO4, final pH 4.17, ambient temperature): 100%
Proportion of Diacerein and its degradants: Diacerein ([1]; 50 mM NaH2PO4, final pH 5.04, ambient temperature): 60%
Proportion of Diacerein and its degradants: Diacerein ([1]; 50 mM NaH2PO4, final pH 5.97, ambient temperature): 77%
Proportion of Diacerein and its degradants: Diacerein ([1]; 50 mM NaH2PO4, final pH 6.55, ambient temperature): 45%
Proportion of Diacerein and its degradants: Diacerein ([1]; 50 mM NaH2PO4, final pH 6.70, ambient temperature): 34%
solubility at 48 h ([1]; 50 mM NaH2PO4 buffer, aqueous buffer, 50 mM NaH2PO4, final pH 3.03, ambient temperature): 0.35 µg/mL (≈ 0.95 µM)
solubility at 48 h ([1]; 50 mM NaH2PO4 buffer, aqueous buffer, 50 mM NaH2PO4, final pH 4.17, ambient temperature): 0.43 µg/mL (≈ 1.17 µM)
Proportion of Diacerein and its degradants: Diacerein ([1]; 0.1N HCl, final pH 1.17, ambient temperature): 100%
Proportion of Diacerein and its degradants: Diacerein ([1]; Water, final pH 5.79, ambient temperature): 90%
solubility at 48 h ([1]; buffer solution (0.01N HCl), simulated gastric fluid, 0.01N HCl, final pH 1.98, ambient temperature): 0.15 µg/mL (≈ 0.407 µM)
solubility in buffer solution ([1]; pH below 4.17): relatively low
stability in buffer solution ([1]; pH below 4.17): stable
solubility at 48 h ([1]; simulated gastric fluid, 0.1N HCl, final pH 1.17, ambient temperature): 0.17 µg/mL (≈ 0.462 µM)
Proportion of Diacerein and its degradants: Diacerein ([2]; final pH 6.55*): 90%
Proportion of Diacerein and its degradants: Diacerein ([2]; final pH 6.70*): 83%
Structure (SMILES): CC(=O)Oc1cccc2c1C(=O)c1c(OC(C)=O)cc(C(=O)O)cc1C2=O [Diacerein, 4,5-bis(acetyloxy)-9,10-dioxo-2-anthracene carboxylic acid]
solubility in water [3]: practically insoluble
conversion before reaching the systemic circulation [4]: entirely converted into rhein
Oral bioavailability [5]: 35-56%
bioavailability with feeding ([5]; oral, feeding): 43-70%
diarrhea or soft stools occurred in the patients ([6]; 3-year clinical study, diacerein twice a day with meals): up to 30%
severity of diarrhea ([6]; occurs within the first two weeks of treatment): mild-to-moderate

Structure (SMILES): O=C(O)c1cc(O)c2c(c1)C(=O)c1cccc(O)c1C2=O [Rhein]
conjugated in the liver to rhein glucuronide [4]: 60%
conjugated in the liver to rhein sulfate [4]: 20%
eliminated by the renal route [4]: 20%
